The text below walks through data of patent US8829197B2, “Salts and polymorphs of desazadesferrithiocin polyether analogues as metal chelation agents” (FerroKin Biosciences, Inc., priority 2008, dated 2014).

For series [1] the following is noted: non-iron-overloaded rats, mean ± SEM, cited from earlier work.
A short description of series [2]: Iron clearing efficiency in non-iron-overloaded, bile duct-cannulated rats (dose response po; po versus sc). The format is in vivo, male Sprague-Dawley rats. The note with it: mean ± SEM. How it is done: Cebus apella monkeys were obtained from World Wide Primates (Miami, Fla.). Male Sprague-Dawley rats were procured from Harlan Sprague-Dawley (Indianapolis, Ind.). Ultrapure salts were obtained from Johnson Matthey Electronics (Royston, UK). All hematological and biochemical studies were performed by Antech Diagnostics (Tampa, Fla.).
Cannulation of Bile Duct in Non-Iron-Overloaded Rats. The cannulation has been described previously in Bergeron, R J et al., Blood 1993, 81, 2166-2173 and Bergeron, R J et al., Ann. N.Y Acad.Sci. 1990, 612, 378-393. Bile samples were collected from male Sprague—Dawley rats (400-450 g) at 3 h intervals for 24 h. The urine sample was taken at 24 h. Sample collection and handling are as previously described. 57'58
Drug Preparation and Administration. In the iron clearing experiments the rats were given a single 50, 150, or 300 mol/kg dose of the drugs po and/or sc. The compounds were administered as a solution in water, 300 mol/kg dose only or (2) as the monosodium salt of the compound of interest (prepared by addition of the free acid to 1 equivalent of NaOH). The chelators were given to the monkeys po and sc at a dose of 150 tmol/kg. The drugs were prepared as for the rats; 2 was given po and sc as a solution in water.
Calculation of Iron Chelator Efficiency. ICE is calculated by dividing the actual amount of iron cleared by a given compound by the theoretical amount that should be cleared. The theoretical iron outputs of the chelators were generated on the basis of a 2:1 ligand:iron complex. The efficiencies in the rats and monkeys were calculated as set forth in Bergeron, R J et al., J. Med. Chem. 1999, 42, 2432-2440. Data are presented as the mean+the standard error of the mean; p-values were generated via a one-tailed Student's 1-test in which the inequality of variances was assumed; and a p-value of <0.05 was considered significant.
Chelator-Induced Iron Clearance and Iron Clearing Efficiency in Non-Iron-Overloaded Rodents Dose Response Studies. Because there is a limited amount of chelatable iron available in an animal at any given time, the iron clearance, and therefore iron-clearing efficiency of a ligand, is saturable. The key to managing this phenomenon can be found in the ferrokinetics and the dose-response properties of the ligand. In this regard, the dose-response along with the corresponding ferrokinetics of each compound given po were evaluated in the non-iron-overloaded, bile duct-cannulated rodent model.
Iron-Clearing Efficiency in Non-Iron-Overloaded Rodents and Iron-Loaded Primates: Oral versus Subcutaneous Administration. A similar protocol was carried out to confirm consistence of results and compare the effects of the compounds across species. Cebus apella monkeys and male Sprague-Dawley rats were used, 3-8 per group.

The conditions of series [3]: iron-loaded Cebus apella, mean ± SEM, cited from earlier work.
A short description of series [4]: Moisture sorption/desorption (DVS) analysis. The format is physicochemical. The conditions noted are these: for total weight gain (water uptake): relative humidity from ~5% to ~95% RH. How it is done: Moisture sorption/desorption (DVS) data were collected on a VTI SGA-100 Vapor Sorption Analyzer. Sorption and desorption data were collected over a range of 5% to 95% relative humidity (RH) at 10% RH intervals under a nitrogen purge. Samples were not dried prior to analysis. Equilibrium criteria used for analysis were less than 0.0100% weight change in 5 minutes, with a maximum equilibration time of 3 hours if the weight criterion was not met. Data were not corrected for the initial moisture content of the samples. NaCl and PVP were used as calibration standards.

Series [5] can be described thus: Approximate solubility (aliquots of solvent, visual inspection). The format is physicochemical. The protocol:
Weighed samples were treated with aliquots of test solvents at room temperature. Samples were typically sonicated between additions to facilitate dissolution. Complete dissolution of the test material in each solvent was determined by visual inspection. Solubility was estimated based on the total volume of solvent used to provide complete dissolution. The actual solubility may be greater than the value calculated due to the incremental addition of solvent and kinetics of dissolution of the material. […] The solubility is expressed as […] if dissolution occurred after the addition of first aliquot.
Approximate solubilities are calculated based on the total solvent used to give a solution based on visual inspection. Small aliquots of solvent are added to a weighed sample with agitation. Actual solubilities may be greater because of the volume of the solvent portions utilized or a slow rate of dissolution. Solubilities are reported to the nearest mg/mL. Simulated gastric fluid (SGF) was prepared according to the 2008 USP vol. 1, p 817 except without pepsin.
Approximate solubilities are calculated based on the total solvent used to give a solution based on visual inspection. Small aliquots of solvent are added to a weighed sample with agitation. Actual solubilities may be greater because of the volume of the solvent portions utilized or a slow rate of dissolution.

Series [6] is described as follows: Relative humidity stress / physical stability on exposure and storage. The format is physicochemical. The conditions noted are these: ~75% RH stress. From the text: Following isolation, salts were then characterized by one or more standard techniques including but not limited to x-ray powder diffraction (XRPD), single crystal x-ray diffraction (SC-XRD or XRD), nuclear magnetic resonance (NMR), solubility analysis, and stability testing by moisture sorption/desorption stress analysis and differential scanning calorimetry (DSC).

Read-outs that look alike come from different tables or passages of the source.

Regarding `COCCOCCOCCOc1cccc(C2=N[C@@](C)(C(=O)O)CS2)c1O` [(S)-3′-HO-DADFT, (S)-4,5-dihydro-2-[2-hydroxy-3-(3,6,9-trioxadecyloxy)phenyl]-4-methyl-4-thiazolecarboxylic acid], the “Rodent ICE @ 300 μmol/kg” value was 10.6 ± 4.4% in series [1] (po) and 13.4 ± 4.5% in series [1] (sc). For the same compound, the “Iron-Clearing Efficiency (%)” value was 20.7 ± 4.4% in series [2] (dose 50 μmol/kg), 18.7 ± 2.9% in series [2] (dose 150 μmol/kg) and 10.6 ± 4.4% in series [2] (dose 300 μmol/kg). The “Primate ICE @ 150 μmol/kg” value in series [3] (po) is given as 23.0 ± 4.1%; in series [3] (sc), 21.5 ± 3.2%.

The term solubility denotes the dissolved amount per volume that the medium holds. In general, aqueous solubility refers to how much of the substance goes into solution per volume. Regarding `COCCOCCOCCOc1ccc(C2=N[C@@](C)(C(=O)O)CS2)c(O)c1` [NMG A, 2,3,4,5,6-pentahydroxy-N-methylhexan-1-aminium (S)-2-(2-hydroxy-4-(2-(2-(2-methoxyethoxy)ethoxy)ethoxy)phenyl)-4-methyl-4,5-dihydrothiazole-4-carboxylate], the “additional weight gain above ~85% RH” value in series [4] (above ~85% RH, listed as N-methyl-D-glucamine (NMG) Salt of (S)-4′-(OH)-DADFT-PE) is listed as ~27.0 wt %. Also, the “weight gain below ~85% RH” value in series [4] (below ~85% RH, listed as N-methyl-D-glucamine (NMG) Salt of (S)-4′-(OH)-DADFT-PE) is recorded as ~34.7 wt %. Moreover, the “weight loss on desorption” value in series [4] (between ~95% and ~5% RH, listed as N-methyl-D-glucamine (NMG) Salt of (S)-4′-(OH)-DADFT-PE) was ~60.6 wt %. The “total weight gain (water uptake)” value in series [4] (listed as N-methyl-D-glucamine (NMG) Salt of (S)-4′-(OH)-DADFT-PE) and in series [4] (listed as NMG salt candidate) was ~61.7 wt % throughout. Besides, the “weight loss upon equilibration at ~5% RH” value in series [4] (~5% RH, listed as N-methyl-D-glucamine (NMG) Salt of (S)-4′-(OH)-DADFT-PE) is reported as ~0.5 wt %. Moreover, the solubility in series [5] (Water, salts of (S)-4′-(OH)-DADFT-PE (Table 16)) is listed as 60 mg/mL. In addition, the aqueous solubility in series [5] (water, salts of (S)-4′-(OH)-DADFT-PE, listed as NMG salt candidate) is ~60 mg/mL. For the same compound, the “appearance upon ~75% RH stress” value in series [6] was “became oily”. For the same compound, in series [6] (listed as NMG salt candidate), the “deliquescence upon ~75% RH stress” value was “No apparent deliquescence”.

Take `C[C@]1(C(=O)O)CSC(c2ccc(O)cc2O)=N1` [(S)-4′-HO-DADFT]: the figures for the “Rodent ICE @ 300 μmol/kg” value in series [1] (po) and in series [1] (sc) were 5.5 ± 1.9% and 8.7 ± 2.6%, respectively. Besides, the figures for the “Iron-Clearing Efficiency (%)” value in series [2] (dose 50 μmol/kg), in series [2] (dose 150 μmol/kg) and in series [2] (dose 300 μmol/kg) were 21.7 ± 3.5%, 11.2 ± 4.2% and 5.5 ± 1.9%, respectively. In series [3] (sc), the “Primate ICE @ 150 μmol/kg” value is given as 30.4 ± 7.2%.

For the compound `C[C@]1(C(=O)O)CSC(c2ccc(O)cc2O)=N1` [Deferitrin, (S)-2-(2,4-dihydroxyphenyl)-4,5dihydro-4-methyl-4-thiazolecarboxylic acid, reference compound], the “Rodent ICE @ 300 μmol/kg” value is 1.1 ± 0.8% in series [1] (po) and 1.1 ± 0.6% in series [1] (sc). The “Iron-Clearing Efficiency (%)” value is reported as 1.5 + 1.7% in series [2] (dose 150 μmol/kg) and 1.1 ± 0.8% in series [2] (dose 300 μmol/kg). Further, the “Primate ICE @ 150 μmol/kg” value is listed as 16.8 ± 7.2% in series [3] (po) and 15.9 ± 2.7% in series [3] (sc).
